Earlier results in patent publication US10894875B2, “Films and unit dose articles comprising aversive UV-protective agents, and uses and methods related thereto” (The Procter & Gamble Company, priority 2017, dated 2021).
Marks after values point to notes of the source that are not given here. One block for each compound: values may come before it.

Columns and labels:
[1] = high assessed based on melting point; low = hydrolysis; based on literature
[2] = reference quinine; lower values correspond to stronger bittering
[3] = Scoville heat units

- Thermostability [1]: Low^c
SMILES: CCCCCOC(=O)c1ccc(N(C)C)cc1 [Ex. 6, Padimate A, reference compound]

SMILES: C=C[C@H]1C[N@@]2CC[C@H]1C[C@H]2[C@H](O)c1ccnc2ccc(OC)cc12 [Ex. 7, Quinine, reference compound]
- Bittering index [2]: 0^d

SMILES: COc1cc(CNC(=O)CCCC/C=C/C(C)C)ccc1O [capsaicin]
- pungency level [3]: about 16,000,000 SHU
